Where “and” joins values, the source holds several entries; their conditions need not be identical. Equal entries are not always repeated.
How the values were obtained:
[1] = test system: Lepidotera versus Diptera; conditions: selectivity between insect orders; cited from earlier work
[2] = target: MpLBD, recombinant LBD heterodimer of ecdysone receptor from Myzus persicae; assay: equilibrium binding of [3H]ponasterone A to MpLBD; conditions: Langmuir isotherm fit
Description: (§1) Data fitting using a computer algorithm (KalcidaGraph v3.09, Synergy Software) allowed us to obtain Kd values for each receptor-radioligand complex and to ascertain [LBD]tot. Comparison of the [LBD]tot value with the protein concentration of each purified sample indicated the proportion of the recombinant receptor LBD heterodimer molecules that was functional. Testing Fluorescent and Reference Ecdysteroids As Ligands Using a Radioligand-based Assay

[3] = test system: LcLBD; assay: removal of bound [3H]ponasterone A from LcLBD by dialysis; format: binding, Lucilia cuprina; conditions: dialysis at room temperature
Description: The same equilibrium binding experiments indicated the properties of functional receptor LBD heterodimer molecules in each preparation to be as follows: LcLBD, 21%; MpLBD, 16%; BtLBD, 8.4%. The value for HaLBD was not determined directly, but by indirect methods it was assigned a provisional value of 15%. The relatively low activity values agree with published observations for the full-length Drosophila melanogaster receptor, for which Sage et al. (1986) remark that ‘. . . the binding activity of unloaded receptor is inherently labile when subjected to standard protein purification techniques. Therefore, the ecdysteroid receptor needs to remain loaded with hormone during most manipulations’. While we agree that a much higher proportion of functional receptor protein can be obtained by conducting the purification in the presence of an ecdysteroid ligand (data not shown), the resulting receptor-ligand complex is not suitable for use in ligand-binding assays. Moreover, bound ecdysteroid ligands are slow to dissociate from the recombinant receptor LBDs. […] We therefore routinely purified the recombinant receptor LBD heterodimers in the absence of any ligands, and corrected the concentration values of the purified LBD heterodimer preparations to account for the proportion of non-functional heterodimer that was present. […]

[4] = target: BtLBD, recombinant LBD heterodimer of ecdysone receptor from Bemisia tabaci; assay: equilibrium binding of [3H]ponasterone A to BtLBD; conditions: Langmuir isotherm fit
Description: as §1

[5] = target: HaLBD, recombinant LBD heterodimer of ecdysone receptor from Helicoverpa armigera; assay: equilibrium binding of [3H]ponasterone A to HaLBD; conditions: Langmuir isotherm fit
Description: as §1

[6] = target: LcLBD, recombinant LBD heterodimer of ecdysone receptor from Lucilia cuprina; assay: equilibrium binding of [3H]ponasterone A to LcLBD; conditions: Langmuir isotherm fit
Description: as §1

LcLBD, recombinant LBD heterodimer of ecdysone receptor from Lucilia cuprina, sequence (O18531 442-677 limits assumed, one chain of several): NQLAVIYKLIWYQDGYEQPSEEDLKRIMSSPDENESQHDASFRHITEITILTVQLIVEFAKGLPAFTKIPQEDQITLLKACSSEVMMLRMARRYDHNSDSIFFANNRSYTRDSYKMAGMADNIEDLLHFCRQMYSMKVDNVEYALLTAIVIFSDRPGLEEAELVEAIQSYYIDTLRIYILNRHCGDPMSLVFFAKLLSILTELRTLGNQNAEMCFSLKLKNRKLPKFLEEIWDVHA
LcLBD, sequence (O18531 442-677 limits assumed): as the sequence (O18531 442-677 limits assumed, one chain of several) above

For `CCc1ccc(C(=O)NN(C(=O)c2cc(C)cc(C)c2)C(C)(C)C)cc1` [RH-5992], which “effectiveness against Lepidotera relative to Diptera” value [1] is on record?
Its value is “two to three orders of magnitude more effective”.

Which Kd [2] does the source give for “[24,25,26,27-^3H(N)]ponasterone A [[^3H]ponasterone A]” here?
The Kd was 0.7 nM and 0.72 nM and ~0.7 nM.

And the “half-life of the radioligand-receptor complex” value [3]?
The value was “about 10 h”.

And the Kd [4]?
Its Kd is 1.21 nM and 1.2 nM.

And the Kd [5]?
Its Kd is 2.53 ± 0.12 nM.

What about the Kd [6] of the same compound?
The Kd was 1 ± 0.1 nM.

Reference: patent US20070292967A1, “Assay for Ligands of the Ecdysone Receptor” (COMMONWEALTH SCIENTIFIC AND INDUSTRIAL RESEARCH OR, priority 2003, published 2007)
